Data published in patent US11434195B2, “Compositions and methods for treatment of central nervous system tumors” (UNIVERSITY OF FLORIDA RESEARCH FOUNDATION, INC., priority 2017, dated 2022).
“Also recorded” adds a separate entry of the source. Counter-ions that a name gives are not always drawn. Like-named read-outs stand apart in the source and are kept apart here.

How the values were obtained:
AKT = AKT kinase activity / basal AKT phosphorylation in HUH-7 cells; assay type: cell-based, human; conditions: proliferating HUH-7 cells, 10 μM
[1] = Tissue accumulation after intraperitoneal injection; assay type: in vivo; conditions: mice, hydrochloride
Description: To assure brain bioavailability of the inventive compounds, time-dependent brain, liver and […] AIP accumulation was measured after intraperitoneal injection of 2.0 mg AIP2. Mice were sacrificed at specific times following injection. Tissues (blood, brain and liver) were taken, and the lipids extracted, loaded on silica-gel column, washed with diethyl ether, and eluted with 10% ethyl acetate in hexane. The eluates were further purified using gradient HPLC on a C8 reverse phase column and the AIP-corresponding fraction was collected and quantitatively analyzed by […], coupled with electrospray ionization-mass-spectroscopy using internal AIP standard.

[2] = tested on: adherent CA1 human glioblastoma multiforme cells; assay: Viability/proliferation of adherent CA1 glioblastoma cells (MTS); assay type: cell-based; conditions: for IC50: Homo sapiens
Description: In addition, glioma cells were cultured (adherent) in DMEM/F12 medium with 10% FBS to attain about 70% confluency. AIP (ranging from about 1 μM to about 100 μM) was added once or twice as above for 24 hours, 48 hours, or 72 hours and analyzed at these time points for proliferation, cell death and markers.
Ales were screened in patient glioblastoma cells CA1 cells proliferating in adherent cultures. Briefly, cells were cultured in DMEM/F12 medium with 10% FBS to attain about 70% confluency. AIP1, AIP2, or vehicle (control) were added for 24 hours and analyzed for proliferation and survival. […] Cell viability/proliferation was measured by MTS added for additional 2-3 hours (FIG. 10A). Microphotographs of the cells were taken with Hoffman modulation-equipped phase-contrast microscope (FIG. 10B; x20 magnification is shown).

[3] = tested on: primary human hepatocytes; assay: Survival of primary human hepatocytes; assay type: cell-based; conditions: up to 50 μM
Description: The cell integrity and structural architecture were not altered following incubation with AIPs for a week (see FIG. 11B).

[4] = tested on: CA1 cancer stem cell-derived carcinoid bodies ('carcinospheres'); assay: Carcinoid sphere model of tumor-initiating glioblastoma stem cells; assay type: cell-based; conditions: Homo sapiens
Description: Human glioblastoma cell lines CA1 (also sometimes referred to as BT73) and L1 are cells are available from the Florida Center for Brain Tumor Research University of Florida Biorepository. Glioma cells (for example CA1, U87MG or L1), are suspended by trituration as single cells and plated at a density of about 25,000 cells/mL in low adhesion plates in Neurobasal® medium containing 1% methylcellulose and growth factors. The cultures are treated with single or repeated doses of AIPs (ranging from 0.1 to 20 […]) or vehicle (control) and maintained for 24 hours, 72 hours and 7 days. The number and size of ‘carcinoid’ spheres are quantitated by inverted phase contrast microscopy, and spheres collected for analysis for determination of survival and growth/proliferation.
This suppression of tumor-initiating glioblastoma multiforme stem/progenitor cells was determined using a ‘carcinoid sphere’ model in serum- and in anchorage-free media. The ability to block cancer stem cell activation and to destroy them is very useful for strategies to prevent glioblastoma recurrence. Here, AIPs blocked completely the activation of tumor-initiating CA1 cells and formation of carcinospheres at ≥2 μM concentrations. […] FIG. 9B is a set of representative photographs of the cells treated as indicated.
With respect to methods, generation of carcinoid spheres from GBM was performed essentially as described previously (Cao et al., Composite fatty acid ether amides suppress growth of liver cancer cells in vitro and in an in vivo allograft mouse model, Cell. Oncol. 36(3):247-257, 2013 and Reinartz et al., Functional Subclone Profiling for Prediction of Treatment-Induced Intratumor Population Shifts and Discovery of Rational Drug Combinations in Human Glioblastoma, Clinical Cancer Research: an official journal of the American Association for Cancer Research 23(2):562-574, 2017). […] The number and size of spheres were quantitated by inverted phase contrast microscopy. […]

Question: For `CCCCCCCC/C=C\CCCCCCCCOCC(O)CNC(C)C` (stereo not shown) [AIP2, Octadecenyloxy-3-isopropylamine-propan-2-ol hydrochloride], which “Basal AKT phosphorylation” value (AKT) is on record?
Answer: The value was “blocked basal AKT phosphorylation”.

Question: What about the Blood-brain barrier penetration ([1]; 24 hours after intraperitoneal injection) of the same molecule?
Answer: Its Blood-brain barrier penetration is “able to cross the blood-brain barrier; also recorded: significant blood-brain-barrier (BBB) penetration”.

Question: And the “Tissue accumulation of non-metabolized compound” value ([1]; intraperitoneal injection of 2 mg, up to 24 hours)?
Answer: Its value is “did accumulate in brain tissue; also recorded: accumulated in brain and liver in a time-dependent fashion”.

Question: And the “Effect on adherent CA1 glioblastoma cells” value ([2]; 20 μM, hydrochloride)?
Answer: The value was “complete shutdown of metabolic activity; also recorded: destroyed all cancer cells”.

Question: What about the IC50 ([2]; read-out: IC50, growth and survival of human malignant glioblastoma cells (CA1)) of the same molecule?
Answer: Its IC50 is 6900 nM.

Question: And the IC50 ([2]; read-out: IC50, proliferating glioblastoma cells)?
Answer: Its IC50 is 7100 nM.

Question: And the “Survival of primary human hepatocytes” value [3]?
Answer: The value was “did not reduce survival”.

Question: And the IC50 ([4]; read-out: IC50, block of development of brain tumor-initiating stem cells)?
Answer: Its IC50 is 1100 nM.

Question: And the IC50 ([4]; read-out: IC50, formation and growth of CA1 cancer stem cell-derived carcinoid bodies)?
Answer: The IC50 was 1100 nM.

Question: What about the IC50 ([4]; read-out: IC50, inhibition of brain tumor-initiating cancer stem cells) of the same molecule?
Answer: The IC50 was 1100 nM.
